# Laboratory results from PMC11555231 (Nature Communications, 2024).
# Bridge positions count the residues as written; N and C are the ends. Square brackets hold non-standard residues; d marks the D form. Peptide text beside a SMILES is read from it.
# Key:
# hPADI4-stable mES cells = assay: High content microscopy of citrullinated histone H3 (H3Cit) in hPADI4-stable mES cells; type: cell-based, mouse; conditions: mean H3Cit intensity, KSR/2i 3 h, range of peptide concentrations
# Description: HaLo-GFP-mito HeLa cells were grown in DMEM (Gibco) supplemented with 10% foetal bovine serum (FBS), penicillin/streptomycin (100 µg/ml) and puromycin (1 µg/ml) at 37 °C, 5% CO2. HaLo-GFP-mito HeLa cell line[82] was profiled by short tandem repeat analysis (STR) and tested negative for mycoplasma by the Cell Services Technology Platform at the Francis Crick Institute. E14 –mouse embryonic stem cells (Cambridge Stem Cell Institute, UK) were cultured in plates coated with 1% gelatine in GMEM supplemented with 10% foetal calf serum (FCS) batch-tested for ES cell culture (Gibco), 0.1 mM non-essential amino acids, 2 mM L-glutamine, 1 mM sodium pyruvate, 0.1 mM β-mercaptoethanol and 50 ng/mL leukaemia inhibitory factor (LIF) (ESGRO, Millipore). For PADI4 activation, cells were cultured in GMEM containing 10% knockout serum replacement (KSR, Life Technologies), 1% FCS batch-tested for ES cell culture (Gibco), 0.1 mM non-essential amino acids, L-glutamine, 1 mM sodium pyruvate, 0.1 mM β-mercaptoethanol, 50 ng/mL LIF (ESGRO, Millipore), 1 μM PD0325901 (AxonMedChem) and 3 μM CHIR99021 (AxonMedChem). For the generation of E14 mES stably expressing human PADI4 (hPADI4-stable), human PADI4 cDNA was inserted into ES E14 cells using the piggyBac transposon system. The Gateway system was used to clone human PADI4 into the piggyBac vector using primers PADI4_AttB1_F and PADI4_AttB2_R (Table S4). pPB-CAG-CTRL (empty vector) or pPB-CAG-hPADI4 vectors […] were transfected with the piggyBac transposase (pPBase) expression vector, pCAGPBase […], by lipofection according to the manufacturer’s instructions (Lipofectamine 2000, Invitrogen). E14 cells constitutively expressing the hygromycin resistance gene and human PADI4 were selected and expanded in media containing […] hygromycin.
# E14 cells were seeded onto 96-well PerkinElmer cell carrier ultra plates (Phenoplates) coated with 0.1% gelatine, at 25,000 cells per well and grown overnight at 37 °C, 5% CO2. Outer wells were excluded but medium was added to minimise any edge effects. […]
# human neutrophils = assay: Ca-ionophore stimulated neutrophils, citrullinated H3 immunostaining and confocal microscopy / immunoblot; type: cell-based; conditions: 50 µM peptide, pre-incubated 60 min, 5 µM Ca-Ionophore
# Description: Peripheral venous blood was isolated from consenting healthy adult volunteers in heparin tubes as previously described. Briefly, blood samples were on Histopaque 1119 (Sigma-Aldrich) and then centrifuged for 20 min at 800 × g. The plasma was collected and centrifuged for a second time for 20 min at 800 × g. The neutrophil layer was collected and washed in Hyclone Hank’s Balanced Salt Solution (HBSS) -Ca, -Mg, -Phenol red (GE Healthcare) supplemented with 10 mM HEPES (Invitrogen) 0.1% FBS and further purified with a discontinuous Percoll (GE Healthcare) gradient consisting of layers with densities of 85, 80, 75, 70 and 65% and centrifuged for 20 min at 800 × g. Neutrophil-enriched layers were then collected and washed, and neutrophil purity was assessed using flow cytometry.
# About 5 × 10^4 sorted neutrophils were seeded in 24-well cell culture plates containing glass coverslips in HyClone HBSS +Ca, +Mg, - Phenol red (GE Healthcare) supplemented with 10 mM HEPES (Invitrogen). Neutrophils were stimulated with 5 µM Ca-Ionophore (Sigma) and fixed for 20 min at room temperature with 2% paraformaldehyde at RT. Cells were then washed and permeabilized with 0.5% Triton X-100 in PBS. Non-specific binding was blocked with 2% BSA (Sigma) and 2% donkey serum (Sigma) in PBS. Samples were stained with DAPI (Life Technologies), the rabbit anti-CitH3 (Abcam; ab5103 1:500) and donkey anti-rabbit alexa488 (Invitrogen; A21206). Fluorescence imaging was performed on a Leica TCS SP8 inverted confocal microscope using sequential scan in between frames mode with a 20x objective.
# Neutrophil samples were boiled in a sodium dodecyl sulphate (SDS) buffer containing dithiothreitol (DTT) and run on a polyacrylamide gel electrophoresis (SDS-PAGE) using Criterion TGX precast gels (Any-KD; Bio-Rad Laboratories). Proteins were then transferred to a PVDF membrane (Bio-Rad Laboratories) via semi-dry transfer. The membrane was blocked with 5% BSA (Fisher Scientific) in Tris-buffered saline with 0.1% Tween-20 (TBS-T). Levels of citrullinated histone H3, total H3 and myeloperoxidase (MPO) were assessed by incubating membranes in either anti-histone H3 citrulline R2 + R8 + R17 (Abcam; ab5103 1:1000), anti-histone H3 (Millipore; 07-690 1:10000) or anti-MPO (DAKO; A0398 1:2500) overnight at 4 °C, respectively. For cell lysate-based assays and pull-down assays, membranes were incubated as above with anti-hPADI4 (Abcam; ab50332; 1:1000 in 5% BSA/TBS-T), anti-Bcr (Cell Signalling #3902S; 1:1000 in 3% milk/TBS-T) and anti-Impdh2 (Cell Signalling #57068S; 1:1000 in 3% milk/TBS-T). Membranes were washed in 0.1% TBS-T and subsequently incubated with goat anti-rabbit HRP or anti-goat (Fisher Scientific) for 1 h, followed by final washes in 0.1% TBS-T. Membranes were imaged with enhanced chemiluminescent substrate (ECL) (Thermo Fisher) on a Bio-Rad imager.
structure (smiles),measurement,setting,value
N=C(N)NCCC[C@@H]1NC(=O)[C@H](CC(=O)O)NC(=O)[C@@H](Cc2ccc(O)cc2)NC(=O)CSC[C@@H](C(=O)NCC(N)=O)NC(=O)[C@H](Cc2ccc(O)cc2)NC(=O)[C@H](CCCCN)NC(=O)[C@@H]2CCCN2C(=O)[C@H](Cc2c[nH]cn2)NC(=O)[C@H](CCCNC(=N)N)NC(=O)[C@H](Cc2ccc(O)cc2)NC(=O)[C@H](Cc2c[nH]cn2)NC(=O)[C@H](Cc2c[nH]cn2)NC1=O [PADI4_3i] ({CH2CO}-[dY]DRHHYRHPKYCG-NH2; thioether N-12),inhibition of intracellular PADI4 (in words),hPADI4-stable mES cells,no inhibition
same,H3Cit levels in neutrophils treated with calcium ionophore,human neutrophils,neither response was affected
